Assays:
Format in all cases: in vivo
[1] = tested on: ABUTH: Abutilon theophrasti; experiment: Post-emergence herbicidal efficacy at 1280 g/ha, ABUTH; conditions: rated visually after about 3 weeks vs untreated controls, 100% = plants have died, 0% = like control plants
In short: (§1)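 Visual damage rating was made roughly 3 weeks after treatment, relative to untreated plants, on a scale where 0% means no effect and 100% means plants died. Foliar application was at the one-leaf stage as an aqueous WP/EC spray with 0.5% additive at 600 L/ha water, on greenhouse-grown pot plants.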

[2] = tested on: AMARE: Amaranthus retroflexus; experiment: Post-emergence herbicidal efficacy at 1280 g/ha, AMARE; conditions: rated visually after about 3 weeks vs untreated controls, 100% = plants have died, 0% = like control plants
In short: as §1

[3] = tested on: DIGSA: Digitaria sanguinalis; experiment: Post-emergence herbicidal efficacy at 1280 g/ha, DIGSA; conditions: rated visually after about 3 weeks vs untreated controls, 100% = plants have died, 0% = like control plants
Protocol: (§2) Seeds of mono- and dicotyledonous weed plants were placed in plastic pots in sandy loam soil (doubly sown with in each case one species of mono- or dicotyledonous weed plants per pot), covered with soil and cultivated in a greenhouse under controlled growth conditions. 2 to 3 weeks after sowing, the test plants were treated at the one-leaf stage. The compounds of the invention, formulated in the form of wettable powders (WP) or as emulsion concentrates (EC), were applied to the green parts of the plants as aqueous suspension or emulsion with addition of 0.5% additive at a water application rate equivalent to 600 litres per hectare. After the test plants had been kept in the greenhouse under optimum growth conditions for about 3 weeks, the activity of the preparations was rated visually in comparison to untreated controls. For example, 100% activity=the plants have died, 0% activity=like control plants. Tables A1 to A12 below show the effects of selected compounds of the general formula (I) according to Table 1 on various harmful plants and at an application rate corresponding to 1280 g/ha, which were obtained by the trial procedure specified above.

[4] = tested on: ECHCG: Echinochloa crus-galli; experiment: Post-emergence herbicidal efficacy at 1280 g/ha, ECHCG; conditions: rated visually after about 3 weeks vs untreated controls, 100% = plants have died, 0% = like control plants
Protocol: as §2

KCHSC: Kochia scoparia [5] = experiment: Post-emergence herbicidal efficacy at 1280 g/ha, KCHSC; conditions: visual rating about 3 weeks after treatment vs untreated controls
In short: as §1

POAAN: Poa annua [6] = experiment: Post-emergence herbicidal efficacy at 1280 g/ha, POAAN; conditions: visual rating about 3 weeks after treatment vs untreated controls
In short: as §1

SETVI: Setaria viridis [7] = experiment: Post-emergence herbicidal efficacy at 1280 g/ha, SETVI; conditions: visual rating about 3 weeks after treatment vs untreated controls
Protocol: as §2

STEME: Stellaria media [8] = experiment: Post-emergence herbicidal efficacy at 1280 g/ha, STEME; conditions: visual rating about 3 weeks after treatment vs untreated controls
In short: as §1

VERPE: Veronica persica [9] = experiment: Post-emergence herbicidal efficacy at 1280 g/ha, VERPE; conditions: visual rating about 3 weeks after treatment vs untreated controls
In short: as §1

[10] = tested on: ABUTH: Abutilon theophrasti; experiment: Pre-emergence herbicide efficacy at 1280 g/ha, ABUTH; conditions: visual scoring after about 3 weeks vs untreated controls
In short: (§3)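 Weed seeds were sown in sandy loam, covered with soil, and the soil surface was treated with the compound, formulated as wettable powder or emulsion concentrate, in water containing 0.5% additive at 600 L/ha. Plants then grew in the greenhouse for roughly 3 weeks before percentage efficacy was scored by eye against untreated controls.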

[11] = tested on: AMARE: Amaranthus retroflexus; experiment: Pre-emergence herbicide efficacy at 1280 g/ha, AMARE; conditions: visual scoring after about 3 weeks vs untreated controls
In short: as §3

[12] = tested on: DIGSA: Digitaria sanguinalis; experiment: Pre-emergence herbicide efficacy at 1280 g/ha, DIGSA; conditions: visual scoring after about 3 weeks vs untreated controls
In short: as §3

[13] = tested on: ECHCG: Echinochloa crus-galli; experiment: Pre-emergence herbicide efficacy at 1280 g/ha, ECHCG; conditions: visual scoring after about 3 weeks vs untreated controls
In short: as §3

KCHSC: Kochia scoparia [14] = experiment: Pre-emergence herbicide efficacy at 1280 g/ha, KCHSC; conditions: visual scoring after about 3 weeks vs untreated controls
From the text: (§4) Seeds of mono- and dicotyledonous weed plants were placed in plastic pots in sandy loam soil (doubly sown with one species each of mono- or dicotyledonous weed plants per pot) and covered with soil. The compounds of the invention, formulated in the form of wettable powders (WP) or as emulsion concentrates (EC), were then applied to the surface of the covering soil as aqueous suspension or emulsion with addition of 0.5% additive at a water application rate of 600 litres per hectare (converted). After the treatment, the pots were placed in a greenhouse and kept under good growth conditions for the test plants. After about 3 weeks, the efficacy of the preparations was scored visually in comparison with untreated controls as percentages. For example, 100% activity=the plants have died, 0% activity=like control plants. Tables C1 to C12 below show the effects of selected compounds of the general formula (I) according to Table 1 on various harmful plants and at an application rate corresponding to 1280 g/ha, which were obtained by the trial procedure specified above.

POAAN: Poa annua [15] = experiment: Pre-emergence herbicide efficacy at 1280 g/ha, POAAN; conditions: visual scoring after about 3 weeks vs untreated controls
In short: as §3

SETVI: Setaria viridis [16] = experiment: Pre-emergence herbicide efficacy at 1280 g/ha, SETVI; conditions: visual scoring vs untreated controls
In short: as §3

STEME: Stellaria media [17] = experiment: Pre-emergence herbicide efficacy at 1280 g/ha, STEME; conditions: visual scoring vs untreated controls
In short: as §3

VERPE: Veronica persica [18] = experiment: Pre-emergence herbicide efficacy at 1280 g/ha, VERPE; conditions: visual scoring vs untreated controls
From the text: as §4

**Q.** Which “Post-emergence efficacy at 1280 g/ha against ABUTH in %” value [1] does the source give for FC(F)(F)CCSc1ccccc1Cc1ncc(Cl)cn1 [Example 1-112] here?
**A.** Its value is 100%.

**Q.** And the “Post-emergence efficacy at 1280 g/ha against AMARE in %” value [2]?
**A.** Its value is 100%.

**Q.** What about the “Post-emergence efficacy at 1280 g/ha against DIGSA in %” value [3] of the same molecule?
**A.** Its value is 90%.

**Q.** What about the “Post-emergence efficacy at 1280 g/ha against ECHCG in %” value [4] of the same molecule?
**A.** The value was 90%.

**Q.** And the “Post-emergence efficacy against KCHSC” value (KCHSC: Kochia scoparia [5])?
**A.** Its value is 100%.

**Q.** What about the “Post-emergence efficacy against POAAN” value (POAAN: Poa annua [6]) of the same molecule?
**A.** Its value is 100%.

**Q.** What about the “Post-emergence efficacy against SETVI” value (SETVI: Setaria viridis [7]) of the same molecule?
**A.** Its value is 90%.

**Q.** And the “Post-emergence efficacy against STEME” value (STEME: Stellaria media [8])?
**A.** The value was 100%.

**Q.** And the “Post-emergence efficacy against VERPE” value (VERPE: Veronica persica [9])?
**A.** Its value is 100%.

**Q.** What about the “Pre-emergence efficacy against ABUTH” value [10] of the same molecule?
**A.** Its value is 90%.

**Q.** What about the “Pre-emergence efficacy against AMARE” value [11] of the same molecule?
**A.** Its value is 100%.

**Q.** And the “Pre-emergence efficacy against DIGSA” value [12]?
**A.** The value was 100%.

**Q.** And the “Pre-emergence efficacy against ECHCG” value [13]?
**A.** Its value is 100%.

**Q.** And the “Pre-emergence efficacy against KCHSC” value (KCHSC: Kochia scoparia [14])?
**A.** The value was 100%.

**Q.** And the “Pre-emergence efficacy against POAAN” value (POAAN: Poa annua [15])?
**A.** Its value is 90%.

**Q.** And the “Pre-emergence efficacy against SETVI in %” value (SETVI: Setaria viridis [16])?
**A.** Its value is 90%.

**Q.** And the “Pre-emergence efficacy against STEME in %” value (STEME: Stellaria media [17])?
**A.** Its value is 90%.

**Q.** And the “Pre-emergence efficacy against VERPE in %” value (VERPE: Veronica persica [18])?
**A.** The value was 100%.

**Q.** What does the source list for N#Cc1cccc(Cc2ncc(Cl)cn2)c1Oc1ccc(F)cc1 [Example 1-38]?
**A.** Post-emergence efficacy at 1280 g/ha against ABUTH in % [1]: 100%; Post-emergence efficacy at 1280 g/ha against AMARE in % [2]: 100%; Post-emergence efficacy at 1280 g/ha against DIGSA in % [3]: 90%; Post-emergence efficacy at 1280 g/ha against ECHCG in % [4]: 100%; Post-emergence efficacy against KCHSC (KCHSC: Kochia scoparia [5]): 100%; Post-emergence efficacy against POAAN (POAAN: Poa annua [6]): 90%; Post-emergence efficacy against SETVI (SETVI: Setaria viridis [7]): 90%; Post-emergence efficacy against STEME (STEME: Stellaria media [8]): 100%; Post-emergence efficacy against VERPE (VERPE: Veronica persica [9]): 100%; Pre-emergence efficacy against AMARE [11]: 100%; Pre-emergence efficacy against DIGSA [12]: 100%; Pre-emergence efficacy against ECHCG [13]: 100%; Pre-emergence efficacy against POAAN (POAAN: Poa annua [15]): 100%; Pre-emergence efficacy against SETVI in % (SETVI: Setaria viridis [16]): 100%; Pre-emergence efficacy against STEME in % (STEME: Stellaria media [17]): 100%; Pre-emergence efficacy against VERPE in % (VERPE: Veronica persica [18]): 100%

**Q.** Fc1ccc(Oc2c(Br)cccc2Cc2ncc(Cl)cn2)cc1 [Example 1-37] was tested. Which “Post-emergence efficacy at 1280 g/ha against ABUTH in %” value [1] did it give?
**A.** The value was 100%.

**Q.** And the “Post-emergence efficacy at 1280 g/ha against AMARE in %” value [2]?
**A.** Its value is 100%.

**Q.** And the “Post-emergence efficacy at 1280 g/ha against DIGSA in %” value [3]?
**A.** Its value is 90%.

**Q.** What about the “Post-emergence efficacy at 1280 g/ha against ECHCG in %” value [4] of the same molecule?
**A.** Its value is 100%.

**Q.** And the “Post-emergence efficacy against KCHSC” value (KCHSC: Kochia scoparia [5])?
**A.** Its value is 100%.

**Q.** What about the “Post-emergence efficacy against POAAN” value (POAAN: Poa annua [6]) of the same molecule?
**A.** Its value is 100%.

**Q.** And the “Post-emergence efficacy against STEME” value (STEME: Stellaria media [8])?
**A.** Its value is 90%.

**Q.** And the “Post-emergence efficacy against VERPE” value (VERPE: Veronica persica [9])?
**A.** Its value is 100%.

**Q.** What about the “Pre-emergence efficacy against AMARE” value [11] of the same molecule?
**A.** The value was 100%.

**Q.** What about the “Pre-emergence efficacy against DIGSA” value [12] of the same molecule?
**A.** The value was 100%.

**Q.** What about the “Pre-emergence efficacy against ECHCG” value [13] of the same molecule?
**A.** Its value is 90%.

**Q.** What about the “Pre-emergence efficacy against POAAN” value (POAAN: Poa annua [15]) of the same molecule?
**A.** The value was 90%.

**Q.** And the “Pre-emergence efficacy against SETVI in %” value (SETVI: Setaria viridis [16])?
**A.** Its value is 100%.

**Q.** What about the “Pre-emergence efficacy against STEME in %” value (STEME: Stellaria media [17]) of the same molecule?
**A.** The value was 90%.

**Q.** What does the source list for Fc1cnc(Cc2ccccc2-c2ccc(F)c(F)c2)nc1 [Example 1-27]?
**A.** Post-emergence efficacy at 1280 g/ha against ABUTH in % [1]: 90%; Post-emergence efficacy at 1280 g/ha against AMARE in % [2]: 100%; Post-emergence efficacy at 1280 g/ha against DIGSA in % [3]: 90%; Post-emergence efficacy against KCHSC (KCHSC: Kochia scoparia [5]): 90%; Post-emergence efficacy against POAAN (POAAN: Poa annua [6]): 90%; Post-emergence efficacy against SETVI (SETVI: Setaria viridis [7]): 90%; Post-emergence efficacy against STEME (STEME: Stellaria media [8]): 90%; Post-emergence efficacy against VERPE (VERPE: Veronica persica [9]): 90%; Pre-emergence efficacy against ABUTH [10]: 100%; Pre-emergence efficacy against AMARE [11]: 100%; Pre-emergence efficacy against DIGSA [12]: 100%; Pre-emergence efficacy against ECHCG [13]: 90%; Pre-emergence efficacy against KCHSC (KCHSC: Kochia scoparia [14]): 90%; Pre-emergence efficacy against POAAN (POAAN: Poa annua [15]): 90%; Pre-emergence efficacy against SETVI in % (SETVI: Setaria viridis [16]): 100%; Pre-emergence efficacy against VERPE in % (VERPE: Veronica persica [18]): 100%

Source: patent publication US20250221410A1, “SUBSTITUTED 2-C-AZINES AND SALTS THEREOF, AND USE THEREOF AS HERBICIDAL ACTIVE SUBSTANCES” (BAYER AKTIENGESELLSCHAFT, priority 2022, published 2025)
